Experimental data published in article PMC8297771 (PLoS Pathogens, 2021).
Where two headings read alike, the source gives them in different places.

Legend:
HIV-1_89.6 = assay: In vitro anti-viral assay in CEMx174 cells (p24); assay type: cell-based; conditions: HIV-1 89.6 / CEMx174 cells; read-out: IC50
Description: (§1) CEMx174 cells were infected with HIV-1 primary isolate 89.6 (From infectious clone p89.6, NIH AIDS Reagent Program) at approximately at 10% of cell population determined by FACS analyses. To determine antiviral activity during virus production, STP0404 was added at concentration in the range of 0.1 nM—10 μM during media exchange at 4 hrs post-infection. DMSO was used as a negative control. Cell-free supernatants were measured for p24 antigen production, 5 days post-infection. The anti-HIV-1 efficacy of the two enantiomers of STP0404 were also determined by using the same protocol. All assays were conducted in triplicates. The IC50 values were computed using GraphPad Prism (Version 9) and presented as means ± S.D. of the triplicates. For SIVmac239, CEMx174 cells were infected with viral supernatant containing SIVmac293 at 50,000 TCID50/mL (kind gift from Dr. G. Silvestri, Emory Yerkes National Primate Research Center) with 100 μL/10^6 cells at varying concentrations of STP0404, BI224436, and Raltegravir, and the same above protocol was followed except for that p27 capsid antigen content was measured daily for 5 days post infection.

HIV-1NL4-3 = assay: In vitro anti-viral assay in human PBMCs (RT activity readout); assay type: cell-based; conditions: for TI (TC50 / IC50): minimal TI from IC50 and 10 μM
Description: (§2) For the assay with human PBMCs, PHA stimulated cells from at least two pooled healthy were infected with HIV-1 strains in 96-well plates. Test drug dilutions, which were prepared at a 2X concentration in microtiter tubes and 100 μL of each concentration (nine total concentrations), were placed in appropriate wells using the standard format. 50 μL of a predetermined dilution of virus stock was placed in each test well (final MOI ≅ 0.1). The PBMC cultures were maintained for 7 days following infection at 37 °C, 5% CO2. After this period, cell-free supernatant samples were collected for analysis of reverse transcriptase (RT) activity. All assays were conducted in triplicates. For RT assay, a microtiter plate-based reverse transcriptase (RT) reaction was utilized (Buckheit et al., AIDS Research and Human Retroviruses 7:295–302, 1991). Tritiated thymidine triphosphate (^3H-TTP, 80 Ci/mmol, NEN) is received in 1:1 dH2O: Ethanol at 1 mCi/mL. Poly rA:oligo dT template:primer (GE Healthcare) was prepared as a stock solution by combining 150 μL poly rA (20 mg/mL) with 0.5 mL oligo dT (20 units/mL) and 5.35 mL sterile dH2O followed by aliquoting (1.0 mL) and storage at—20°C. The RT reaction buffer was prepared fresh on a daily basis and consisted of 125 μL 1.0 M EGTA, 125 μL dH2O, 125 μL 20% Triton X100, 50 μL 1.0 M Tris (pH 7.4), 50 μL 1.0 M DTT, and 40 μL 1.0 M MgCl2. The final reaction mixture was prepared by combining 1 part ^3H-TTP, 4 parts dH2O, 2.5 parts poly rA:oligo dT stock and 2.5 parts reaction buffer. Ten microliters of this reaction mixture were placed in a round bottom microtiter plate and 15 μL of virus containing supernatant is added and mixed. The plate was incubated at 37°C for 60 mins. Following incubation, the reaction volume was spotted onto DE81 filter-mats (Wallac), washed 5 times for 5 mins each in a 5% sodium phosphate buffer or 2X SSC (Life Technologies). Next they were washed 2 times for 1 min each in distilled water, 2 times for 1 min each in 70% ethanol, and then dried. Incorporated radioactivity (counts per min, CPM) was quantified using standard liquid scintillation techniques. These PBMC analysis was conducted by fee to service through Southern Research Institute (Frederick, MD, USA). The IC50 were analyzed using GraphPad Prism (Version 9) and presented as means ± S.D. of the triplicates.

[1] = test system: Ral-resistant (1556_1) clinical isolate; assay: as above; assay type: cell-based, HIV-1
Description: as §2

[2] = test system: Ral-resistant (4736_2) clinical isolate; assay: as above; assay type: cell-based, HIV-1
Description: as §2

[3] = test system: Ral-resistant (4736_4) clinical isolate; assay: as above; assay type: cell-based, HIV-1
Description: as §2

[4] = test system: Ral-resistant (8070_1) clinical isolate; assay: as above; assay type: cell-based, HIV-1; conditions: for TI (TC50 / IC50): human PBMCs, Ral-resistant (8070_1)
Description: as §2

[5] = test system: Ral-resistant (8070_2) clinical isolate; assay: as above; assay type: cell-based, HIV-1
Description: as §2

human PBMCs = assay: Tissue culture cytotoxicity measurement in human PBMCs; assay type: cell-based; conditions: human PBMCs
From the text: Multiple chemical scaffolds such as quinoline (BI224436, Fig 1A), benzothiazole (GS-9822, Fig 1B) and pyridine (KF116, Fig 1C) were previously explored for the discovery of ALLINIs. Here, we employed the pyrrolopyridine-based scaffold to synthesize an ALLINI candidate compound, STP0404 (Fig 1D). STP0404 harbors the tert-butoxy moiety that is common to other ALLINIs (Fig 1). First, we measured its in vitro anti-HIV-1 efficacy and cytotoxicity using various HIV-1 strains in multiple cell types, with cytotoxicity initially tested up to 10 μM (Table 1). […] The calculated in vitro minimum therapeutic index (TI) of STP0404 under these conditions was accordingly >25,000. For comparison, we employed two FDA-approved HIV-1 inhibitors, AZT (RT inhibitor) and Raltegravir (Ral, INSTI), alongside 5 different Ral-resistant clinical isolates (Table 1).

HIV-1 NL4-3 = assay: In vitro anti-viral assay in MT4 cells; assay type: cell-based
MT4 cells = assay: Tissue culture cytotoxicity measurement in MT4 cells; assay type: cell-based
From the text: Fig 1 ALLINI structures and STP0404 activities. […] Pyridine-based KF116, D. Pyrrolopyridine-based STP0404. The conserved chemical moiety containing tert-butoxy and carboxylic acid groups are marked by “]”.

[6] = test system: HIV-1_89.6 passage 14 viral population (Y99H and A128T); assay: Susceptibility of STP0404-selected viral population, passage 14, in CEMx174 cells; assay type: cell-based; conditions: passage 14 viral population (Y99H and A128T) vs wild type HIV-1_89.6
Description: CEM x174 cells infected with HIV primary isolate 89.6 were cultured in the presence of STP0404 at the concentration of IC90 determined earlier. At each passage, cells from original culture in the presence of inhibitor (0.75x10^6 cells) were mixed with equal amount of no-drug control cells to propagate, and viral replication was monitored by the production of p24 antigen in the supernatant. […] The population of drug-induced mutations at each passage mentioned above was determined by sequencing of at least 10 resulting transformants.
CEM x174 cells were infected with cell-free viral supernatant collected during virus resistance assays above. […] The viral stocks were normalized by the amount of p24 capsid antigen, determined to infect CEMx174 cells at approximately 10% of populations (10,000 pg / 10^6 cells). […] Cell-free supernatants were measured for p24 antigen production 5 days post-infection. p89.6 plasmid was applied for Quickchange kit (Invitrogen) to create Y99H single, A128T single, Y99H/A128T double mutants as well as two natural variants (A124N and T125A), and these 89.6 variant viruses were generated by transfecting 293T cells and culturing the produced viruses in CEMx174 cells. The IC50 of STP0404 against respective viruses were analyzed using GraphPad Prism (Version 9) and presented as means ± S.D. of triplicates. […]

SIVmac239 = assay: In vitro efficacy test against SIVmac239 in CEMx174 cells (p27); assay type: cell-based, SIV; conditions: p27 assay
Description: as §1, with “The IC50 values were computed using GraphPad Prism (Version 9) and presented as means ± S.D. of the triplicates.” left out
Supplementary file ppat.1009671.s004.tiff: S1 Fig In vitro efficacy tests of STP0404, BI224436 and Raltegravir against SIVmac239 in CEMx174 cell culture. CEMx174 cells were infected with SIVmac239 with various concentrations of STP0404, BI224436, and Raltegravir, and the viral production was determined by p27 assay at 5 days post infection. […]

[7] = column under Ral-resistant (1556_1)
[8] = column under Ral-resistant (4736_2)
[9] = column under Ral-resistant (4736_4)
[10] = column under Ral-resistant (8070_1)
[11] = column under Ral-resistant (8070_2)
[12] = Human immunodeficiency virus 1, PBMC

Compound	TI (TC50 / IC50) (HIV-1NL4-3; human PBMCs, NL4-3)	TI (TC50 / IC50) [1]	TI (TC50 / IC50) [4]	TI (TC50 / IC50) [5]	TC50 (human PBMCs; NL4-3, tested up to 10 μM)	TC50 (human PBMCs; [7])	TC50 (human PBMCs; [8])	TC50 (human PBMCs; [9])	TC50 (human PBMCs; [10])	TC50 (human PBMCs; [11])	TI (TC50 / IC50) (HIV-1 NL4-3; HIV-1 NL4-3 / MT4 cells)	TC50 (MT4 cells)	other results
Cc1nc2c(c(C)c(C)n2Cc2cnn(C)c2)c(-c2ccc(Cl)cc2)c1[C@H](OC(C)(C)C)C(=O)O [(S) form]													IC50 (HIV-1_89.6): 1.3 nM
Cc1cn([C@H]2C[C@H](N=[N+]=[N-])[C@@H](CO)O2)c(=O)[nH]c1=O [AZT]	>1,121	>1,000	>1,490	>125	>10,000 nM	>10,000 nM	>10,000 nM	>10,000 nM	>10,000 nM	>10,000 nM	> 179	> 10,000 nM	IC50 (HIV-1NL4-3; human PBMCs, NL4-3, mean of triplicates ± SD, read-out: IC50): 8.92 ± 2.08 nM; IC50 [1]: 9.33 ± 0.22 nM; TI (TC50 / IC50) ([2]; human PBMCs, Ral-resistant (4736_2)): >23,000; IC50 ([2]; human PBMCs, Ral-resistant (4736_2), read-out: IC50): 0.42 ± 0.37 nM; IC50 ([3]; human PBMCs, Ral-resistant (4736_4), read-out: IC50): 6.71 ± 5.74 nM; IC50 [5]: 79.9 ± 11.8 nM; IC50 (HIV-1 NL4-3; HIV-1 NL4-3 / MT4 cells, read-out: IC50): 56 ± 23.5 nM
Cc1nc2ccccc2c(-c2ccc3c4c(ccnc24)CCO3)c1[C@H](OC(C)(C)C)C(=O)O [BI224436, reference compound]													IC50 fold increase [6]: 40.5 fold; inhibition of SIVmac239 (SIVmac239): failed to inhibit
Cc1nnc(C(=O)NC(C)(C)c2nc(C(=O)NCc3ccc(F)cc3)c(O)c(=O)n2C)o1 [Raltegravir]	>22,700	~20	~10	~100	>10,000 nM	>10,000 nM	>10,000 nM	>10,000 nM	>10,000 nM	>10,000 nM	> 2,710	> 10,000 nM	IC50 (HIV-1NL4-3; Human immunodeficiency virus 1, NL43, PBMC): 0.44 ± 0.74 nM; IC50 [1, 12]: > 500 nM; IC50 [2, 12]: > 50 nM; IC50 [3, 12]: 36.5 ± 53.6 nM; TI (TC50 / IC50) ([3]; human PBMCs, Ral-resistant (4736_4)): >270; IC50 [4, 12]: > 1000 nM; IC50 [5, 12]: > 100 nM; IC50 (HIV-1 NL4-3; Human immunodeficiency virus 1, NL43, MT4): 3.69 ± 2.8 nM
